Each structure is given as a SMILES string. pEC50: −log10 of the molar value. The source made the active and inactive calls.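 The calls were made as follows: active = half-maximal concentration for the rise in caspase light signal at or below ten times the top tested dose; inconclusive = flat fit between 30% and 70% activity, or unreliable curve fit; inactive = the rest.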 Where only a bound is given, the exact number is not on record here.

EC50 data for 87 compounds are collected here from PubChem BioAssay AID2765 (Broad Institute, 2010).

This assay relates to MEF A1-2A-BIM cells, caspase 3/7 luminescence, 3 h. Kind of assay: inducers of caspase signal in A1-dependent MEFs – cell-based, luminescence, retest, A1 inhibitor project, dose response (AID 2765).

One may read the EC50 as the concentration needed to bring the measured effect to its halfway point. As to `CCCCCC(=O)N1CCCC1`, the EC50 was > 35 µM (inactive).

Turning to `CS(=O)(=O)c1ncc(Cl)c(C(=O)Nc2ccc(N3CCOCC3)cc2)n1`, the EC50 was > 35 µM (inactive).

On to `CN(Cc1cnc2nc(N)nc(N)c2n1)c1ccc(C(=O)N[C@@H](CCC(=O)O)C(=O)O)cc1`, for which the EC50 was > 35 µM (inactive).

In the case of `CCOCCCNC(=O)C1(O)c2cc(Br)ccc2NC(=O)N1c1ccc(CC)cc1` (configuration not stated), the EC50 is > 35 µM (inactive).

With `CC1Cc2ccccc2N1C(=O)C1CCN(S(=O)(=O)Cc2ccccc2)CC1` (configuration not stated), the EC50 is > 35 µM (inactive).

Regarding `Cc1n[nH]c(C)c1S(=O)(=O)N1CCC(C(=O)O)CC1`, the EC50 is > 35 µM (inactive).

With `O=C(CSc1cccc[n+]1[O-])NC1CCCCC1`, the EC50 is > 35 µM (inactive).

On to `O=S1(=O)C=C(Sc2nc3ccccc3s2)c2ccccc21`, for which the EC50 is > 35 µM (inactive).

Regarding `CCOc1nc(NCCO)nc(NCCC2=CCCCC2)n1`, the EC50 was > 35 µM (inactive).

Consider `NS(=O)(=O)c1ccc(S(=O)(=O)c2ccccc2)nc1`, for which the EC50 is > 35 µM (inactive).

`COC(=O)Cn1cc(C(=O)C2CC2)c2ccccc21`: the EC50 was > 35 µM (inactive).

For the compound `O=C(CN(C(=O)CCC(=O)Nc1nccs1)c1cccc(F)c1)NCc1ccccc1`, the EC50 was > 35 µM (inactive).

In the case of `CC(=O)Nc1ccc(SCCN2CC[C@@H](C(C)(C)C)CCC2=O)cc1`, the EC50 was > 35 µM (inactive).

Turning to `CCCCOC(=O)c1ccc(S(N)(=O)=O)o1`, the EC50 is > 35 µM (inactive).

The term pEC50 denotes the negative decadic logarithm of the EC50, by convention in mol/L. Regarding `O=C1/C(=C/c2ccc(N3CCOCC3)o2)SC(=Nc2ccccc2)N1CCc1c[nH]c2ccccc12`, the negative logarithm of the EC50 (pEC50) was 5.04.

Regarding `COc1ccc(OC)c(/C=C/C(=O)N(C)CC(=O)Nc2cc(C)ccc2C)c1`, the EC50 was > 35 µM (inactive).

For `COc1ccccc1OCC(=O)NNC(=O)c1ccc(F)c(S(=O)(=O)N2CCOCC2)c1`, the EC50 was > 35 µM (inactive).

In the case of `CCCN1C(=O)/C(=N\OCC(=O)NC23CC4CC(CC(C4)C2)C3)c2ccccc21`, the EC50 was > 35 µM (inactive).

Consider `O=C(CCC1N=C2c3ccccc3N=C(SCC(=O)NCC3CCCO3)N2C1=O)NCc1ccc(F)cc1` (configuration not stated), for which the EC50 was > 35 µM (inactive).

In the case of `CSc1ccccc1NC(=O)c1ccc(N2CC3CC(C2)c2cccc(=O)n2C3)c(NC(=O)c2cccnc2)c1` (configuration not stated), the EC50 is > 35 µM (inactive).

Take `O=C(CCS(=O)(=O)c1ccccc1)N(CCCN1CCOCC1)c1nc2ccc(F)cc2s1`: the EC50 was > 35 µM (inactive).

`CCOC(=O)C(NC(=O)c1ccc(OC)cc1)(N1CCCC1=O)C(F)(F)F` (configuration not stated): the EC50 is > 35 µM (inactive).

With `COc1cc(OC)cc(C(=O)N[C@H](C(=O)OCC(=O)Nc2ccc(C)cc2C)C(C)C)c1`, the EC50 is > 35 µM (inactive).

For `CCOC(=O)/C=c1\s/c(=C\c2ccc(C#N)cc2)c(=O)n1CC(=O)Nc1cccc(C)c1C`, the negative logarithm of the EC50 (pEC50) is 5.50.

Regarding `O=C(CSc1nccc(=O)[nH]1)Nc1ccccc1Sc1ccccc1`, the EC50 was > 35 µM (inactive).

In the case of `COc1ccc(C(=O)Nc2cccc3c2CCCC3)cc1`, the EC50 was > 35 µM (inactive).

`COc1cccc(CNC(=O)CN2C(=O)COc3ccc(S(=O)(=O)N4CCCCCC4)cc32)c1`: the EC50 was > 35 µM (inactive).

As to `O=C(Cc1cccc([N+](=O)[O-])c1)Nc1cccc(C(=O)N2CCOCC2)c1`, the EC50 is > 35 µM (inactive).

Consider `CCOC(=O)c1cc(/C(C)=N/OC(=O)c2ccc(C(C)(C)C)cc2)on1`, for which the EC50 was > 35 µM (inactive).

`CCOc1cc2c(cc1OCC)C(c1ccccc1)N(c1ccccc1)C(=O)C2` (configuration not stated): the EC50 was > 35 µM (inactive).

Regarding `CCc1cccc(C)c1Nc1nc2ccccc2n2cnnc12`, the EC50 was > 35 µM (inactive).

As to `Cc1cc(Sc2ncnc(N)c2[N+](=O)[O-])ncn1`, the EC50 is > 35 µM (inactive).

As for `CCN(CC)CCCN=C(C)c1c(O)n(-c2ccc(C)cc2)c(=O)[nH]c1=O`, the EC50 was > 35 µM (inactive).

As for `COc1cc(C(=O)Nc2cc(-c3ccccc3)[nH]n2)cc(OC)c1OC`, the EC50 is > 35 µM (inactive).

With `CC1Cc2ccccc2N1C(=O)c1ccc2c(c1)nnn2C` (configuration not stated), the EC50 was > 35 µM (inactive).

For the compound `O=C(/C=C/N1CCN(Cc2ccccc2)CC1)C(F)(F)F`, the EC50 is > 35 µM (inactive).

For the compound `COc1ccc(-c2nc(NC(=O)c3n[nH]c(=O)c4ccccc34)sc2C)cc1`, the EC50 was > 35 µM (inactive).

Turning to `Cc1cc(/C=C(/C#N)C(=O)O)c(C)n1-c1cccc2ccccc12`, the EC50 was > 35 µM (inactive).

As to `Cc1ccc(C=C2C(Cl)=C(Cl)C(Cl)=C2Cl)cc1`, the pEC50 is 5.14.

For `O=[N+]([O-])c1ccc(N2CCCC2)c(F)c1Br`, the EC50 is > 35 µM (inactive).

Turning to `Cc1ccccc1[C@]1(C)ON(c2ccccc2C(F)(F)F)C1=O`, the EC50 was > 35 µM (inactive).

For the compound `Cc1ccc(NC(=O)c2cc(N3C(=O)C=CC3=O)ccc2N2CCOCC2)cc1Cl`, the EC50 was > 35 µM (inactive).

Turning to `CN(C)Cc1ccc(O)c(CCc2ccccc2)n1`, the EC50 was > 35 µM (inactive).

Consider `COc1ccc2nc(SCC(=O)N3CCN(c4ccc(F)cc4)CC3)c(C#N)cc2c1`, for which the EC50 is > 35 µM (inactive).

For `COC(=O)c1ccc(NC(=O)CCN2CCN(c3ccccc3)CC2)cc1`, the EC50 is > 35 µM (inactive).

As to `CCN1C(=O)/C(=C2\Sc3ccccc3N2CC)OC1=S`, the EC50 was > 35 µM (inactive).

On to `COC(=O)C[C@H]1c2ccccc2S(=O)(=O)N1c1cccc(OC)c1`, for which the EC50 was > 35 µM (inactive).

Turning to `CC1CCCCC12NC(=O)N(CC(=O)c1ccc(Cl)s1)C2=O` (configuration not stated), the EC50 is > 35 µM (inactive).

`CCN(CC)CCCN=C(C)c1c(O)n(-c2ccccc2)c(=O)[nH]c1=O`: the EC50 is > 35 µM (inactive).

For `CCOc1ccccc1NC(=O)CN1C(=O)CSC(C)C1=O` (configuration not stated), the EC50 was > 35 µM (inactive).

On to `CN(C)C=NC(=O)c1cc(C(=O)c2ccc(Cl)cc2Cl)c[nH]1`, for which the EC50 is > 35 µM (inactive).

Take `Nc1nonc1-c1nc2ccccc2n1CC(=O)NC1CCCC1`: the EC50 is > 35 µM (inactive).

On to `COc1ccc(S(=O)(=O)Nc2c(C)n(C)n(-c3ccccc3)c2=O)cc1`, for which the EC50 was > 35 µM (inactive).

Regarding `O=C1C(Cc2ccccc2)SC(=Nc2ccccc2)N1c1ccccc1` (configuration not stated), the EC50 is > 35 µM (inactive).

Take `O=C(NCCCN1CCCCC1)c1ccc2c(c1)NC(=O)c1ccccc1S2`: the EC50 is > 35 µM (inactive).

For the compound `COc1ccc(NC(=O)CN2CCN(CC(=O)Nc3ccccc3Cl)CC2)cc1Cl`, the EC50 was > 35 µM (inactive).

For `Cc1nc(SCc2nc3c([N+](=O)[O-])cccc3[nH]2)c2oc3ccccc3c2n1`, the EC50 is > 35 µM (inactive).

With `CCc1ccccc1NC(=O)C(CC)Sc1nc2cc3c(cc2c(=O)n1Cc1ccco1)OCO3` (configuration not stated), the EC50 is > 35 µM (inactive).

As to `O=C(Cc1ccccc1)Oc1cccc(N2C(=O)CCC2=O)c1`, the EC50 is > 35 µM (inactive).

In the case of `CC(C)(C)N(Cc1ccccc1)C(=O)COC(=O)CNC(=O)c1ccco1`, the EC50 is > 35 µM (inactive).

As for `CCCCNC(=S)N/N=C/c1ccc(OCC(=O)Nc2c(C)cc(C)cc2C)c(OC)c1`, the EC50 was > 35 µM (inactive).

Turning to `O=C(Nc1ccccc1C(=O)N1CCCCCC1)c1ccc(Cl)cc1`, the EC50 is > 35 µM (inactive).

`COc1ccc(-c2ccc3c(c2)S(=O)(=O)c2cccc(C(=O)NCCOc4ccccc4)c2C3=O)cc1OC`: the EC50 was > 35 µM (inactive).

As to `COc1ccccc1C(=O)NCCC(=O)N1CCN(S(=O)(=O)c2ccc(Cl)cc2)CC1`, the EC50 was > 35 µM (inactive).

For the compound `Cc1cccc(C)c1NC(=O)CS(=O)CC(=O)N1CCN(c2ccccc2)CC1` (configuration not stated), the EC50 was > 35 µM (inactive).

`CCOC(=O)c1oc2ccccc2c1NC(=O)CN1CCN(C)CC1`: the EC50 is > 35 µM (inactive).

Turning to `CCOC(=O)N1CCN(C(=O)c2ccc3nc(N4CCC(C)CC4)sc3c2)CC1`, the EC50 was > 35 µM (inactive).

On to `O=C(c1c[nH]c2ccccc12)C(Cl)c1ccccc1` (configuration not stated), for which the EC50 is > 35 µM (inactive).

As to `C=CCn1c(SCc2ccc(F)cc2)nnc1-c1sc2nc(C)cc(C)c2c1N`, the EC50 was > 35 µM (inactive).

Regarding `COc1ccc(C(=O)/C=C/C(=O)N(CC(=O)NC2CCCCC2)Cc2cccs2)c(O)c1`, the EC50 was > 35 µM (inactive).

`O=C1ON=C(c2ccc(Cl)cc2)/C1=C/c1ccc(O)cc1`: the EC50 was > 35 µM (inactive).

`O=C(/C=C/c1cccc(Cl)c1)c1ccc([N+](=O)[O-])o1`: the EC50 is > 35 µM (inactive).

Consider `COCC(=O)NC(C)c1nc2ccccc2[nH]1` (configuration not stated), for which the EC50 is > 35 µM (inactive).

On to `CN(C)C/C=C(\c1ccc(Br)cc1)c1cccnc1`, for which the EC50 is > 35 µM (inactive).

Take `CC(C)C(=O)n1nc(-c2cccnc2)nc1NCc1ccc(F)cc1`: the EC50 is > 35 µM (inactive).

With `COc1cc2c(cc1OC)C(c1ccccc1Br)NC(=O)C2` (configuration not stated), the EC50 was > 35 µM (inactive).

With `Cc1cc(C(F)(F)F)n2ncc(-c3cccc(Br)c3)c2n1`, the EC50 is > 35 µM (inactive).

On to `O=C(Nc1ccc(S(=O)(=O)N2CCOCC2)cc1)c1ccco1`, for which the EC50 was > 35 µM (inactive).

For `O=C1c2ccsc2SCCN1Cc1cccc(F)c1`, the EC50 was > 35 µM (inactive).

As for `CC(C)C[C@H](NC(=O)N1CCn2c1nc1ccccc12)C(=O)NCc1ccccc1`, the EC50 was > 35 µM (inactive).

As to `CC(=O)Nc1ccc(NC(=O)C(=O)NCC(c2ccco2)N2CCc3ccccc32)cc1` (configuration not stated), the negative logarithm of the EC50 (pEC50) was 4.49.

Regarding `CCc1ccc(N(CC)C(=O)c2cn(C)c(=O)c3ccccc23)cc1`, the EC50 was > 35 µM (inactive).

On to `CC(=O)c1ccc(S(=O)(=O)N2CCCCC2C(=O)O)cc1` (configuration not stated), for which the EC50 is > 35 µM (inactive).

With `CSC[C@@H]1NC(=S)N(c2ccc(C)cc2)C1=O`, the EC50 is > 35 µM (inactive).

As to `Cc1ccc(OCCC(=O)Nc2ccccc2C(=O)NC2CC2)cc1`, the EC50 is > 35 µM (inactive).

As for `O=C(COC(=O)c1ccccc1Br)NC1CCCCCCC1`, the EC50 was > 35 µM (inactive).

For `Cc1ccc(C)c(NC(=O)COC(=O)c2cc3ccccc3oc2=O)c1`, the EC50 was > 35 µM (inactive).
